Measurements: patent US20100093773A1, “METHODS OF TREATING CANCER” (Myriad Pharmaceuticals, Inc., priority 2007, published 2010)
Counter-ions that a name gives are not always drawn.

Columns and labels:
[1] = test system: human ovarian OVCAR-3 carcinoma cells; experiment: Vascular disruption effects in human tumor xenograft model (tumor histology, hematoxylin and eosin Y); assay type: in vivo, Crl:Nu/Nu-nuBR mice; conditions: OVCAR-3 xenograft, 24 hours after dosing; for blood vessels in the necrotic areas / tumor necrosis pattern (central area of the tumors): 10 mg/kg test compound, 100 mg/kg CA4P
Description: (4-Methoxy-phenyl)-methyl-(2-methyl-quinazolin-4-yl)-amine hydrochloride was tested in a human tumor xenograft model to determine its vascular disruption effects. Crl:Nu/Nu-nuBR mice were grown and injected with 1×10^7 human ovarian OVCAR-3 carcinoma cells on the right flank and allowed to grow to various tumor volumes. Mice were then dosed with either vehicle, 100 mg/kg combretastatin A-4 phosphate (CA4P) (obtained from Toronto Research Chemicals, Ontario, Canada) or 10 mg/kg (4-Methoxy-phenyl)-methyl-(2-methyl-quinazolin-4-yl)-amine hydrochloride.
Animals were housed by groups in Positive Individual Ventilation (PIV) cages in flat-bottom cages (Thoren Caging Systems, Hazelton, Pa.) with no more than ten mice per cage. Cages contained autoclaved TEK-Fresh bedding (Harlan, Indianapolis, Ind.), which was changed every seven days. Environmental controls were set to maintain a temperature between 65° F. and 75° F. with a relative humidity of 30-70% in a 12:12 hour light:dark cycle. Animals were feed gamma-irradiated 2019 rodent chow ad libitum (Harlan, Indianapolis, Ind.). Tap water was sterilized using manufacture recommended conditions and supplied via an automated watering system ad libitum (Edstrom Industries, Waterford, Wis.). Twenty four hours after dosing, mice were sacrificed and tumors and hearts removed, fixed, sectioned and stained with hematoxylin and eosin Y (each obtained from Richard Allen Scientific, Kalamazoo, Mich.).

[2] = Phase I clinical trial, weekly intravenous administration, subjects with refractory solid tumors (safety, tolerability); assay type: in vivo, human; conditions: i.v. weekly x3 per 4 week cycle, 0.3-3.3 mg/m^2
Description: An open-label, dose-escalating, multiple-dose study to define the safety, tolerability and pharmacokinetics of weekly intravenous administration of (4-Methoxy-phenyl)-methyl-(2-methyl-quinazolin-4-yl)-amine hydrochloride was performed. A dosing schedule (each 4 week cycle) was performed for (4-Methoxy-phenyl)-methyl-(2-methyl-quinazolin-4-yl)-amine hydrochloride weekly for 3 weeks with no infusion on the fourth week of each cycle. Subjects with refractory solid tumors were enrolled in cohorts of 3. During Cycle 1, subjects were hospitalized during each infusion of (4-Methoxy-phenyl)-methyl-(2-methyl-quinazolin-4-yl)-amine hydrochloride and remained for observation and safety evaluation for approximately 24 hours following the end of the infusion. All subject had continuous telemetry for 2 hours prior to infusion, for 1-2 hour infusion and for 3 hours after the end of the infusion. Any clinically significant electrocardiographic (ECG) wave form abnormality was recorded and prolongation of the monitoring period extended at the discretion of the principal investigator.
Electrocardiograms were obtained prior to starting the infusion and within 30 minutes of the end of infusion for each infusino of the first cycle. Electrocardiograms on Day 1 were obtained in triplicate 5 minutes apart.
Neurocognitive assessments were made by administration of the Mini-Mental State Examination (MMSE), the Hopkins Verbal Learning and timed Grooved Pegboard tests before administration of the intravenous infusion and approximately 24 hours of the infusion at each weekly administration of the first cycle.
On days 1, 8, and 15 of each cycle, vital signs were obtained prior to the first dose, at 15, 30, and 60 minutes after the initiation of the infusion, and at 0.5, 1, 1.5, 2, and 4 hours after the end of the intravenous infusion. Vital signs at all time points beyond the start of the intravenous infusion included heart rate, blood pressure and respirations. Temperature was measured at the end of the infusion and 4 hours later.
Individual subjects were allowed to continue on repeated weekly ×3 administrations every 28 days with no dose increase provided there was no unacceptable toxicity or disease progression.
Tumor response was evaluated by response evaluation criteria in solid tumors (RECIST) criteria. To prevent sever hypersensitivity reactions due to Cremophor® EL, subjects were premedicated with oral dexamethasone (20 mg) administered approximately 12 and 6 hours before the intervenous infusion with (4-Methoxy-phenyl)-methyl-(2-methyl-quinazolin-4-yl)-amine hydrochloride, diphenhydramine (50 mg) or its equivalent administered intravenously 30-60 minutes before (4-Methoxy-phenyl)-methyl-(2-methyl-quinazolin-4-yl)-amine hydrochloride, and cimetidine (300 mg) or ranitidine (50 mg) administered intravenously 30-60 minutes before (4-Methoxy-phenyl)-methyl-(2-methyl-quinazolin-4-yl)-amine hydrochloride.

| Structure (SMILES) | blood vessels in the necrotic areas [1] | tumor necrosis pattern (central area of the tumors) [1] | degree of necrosis compared with CA4P treated animals ([1]; 10 mg/kg vs 100 mg/kg CA4P) | bradycardia [2] | dose limiting toxicity [2] | intratumor bleeding [2] | overall safety and tolerability [2] | peripheral cytotoxicity [2] | systolic blood pressure [2] | effects on cardiac conduction (PR, QRS or QTC) ([2]; ECG) |
| --- | --- | --- | --- | --- | --- | --- | --- | --- | --- | --- |
| COc1ccc(N(C)c2nc(C)nc3ccccc23)cc1 [(4-Methoxy-phenyl)-methyl-(2-methyl-quinazolin-4-yl)-amine hydrochloride] | consistently congested with perivascular hemorrhage | extensive necrosis with a rim of viable tumor tissue around the periphery | greater | occasional episodes of bradycardia | vascular in nature, manifested by an acute coronary syndrome | incidences of intratumor bleeding | safe and tolerable | no evidence of cytotoxity peripherally | dose-related increase | no significant effects |
| COc1ccc(/C=C\c2cc(OC)c(OC)c(OC)c2)cc1OP(=O)(O)O [CA4P, combretastatin A-4 phosphate, reference compound] | consistently congested with perivascular hemorrhage | extensive necrosis with a rim of viable tumor tissue around the periphery |  |  |  |  |  |  |  |  |
